In patent US20230118688A1, “1H-PYRAZOLO[4,3-d]PYRIMIDINE COMPOUNDS AS TOLL-LIKE RECEPTOR 7 (TLR7) AGONISTS” (BRISTOL-MYERS SQUIBB COMPANY, priority 2020, published 2023):

Legend:
CD69 = assay: Induction of CD69 in human whole blood; assay type: cell-based; conditions: 17 h, CD69 surface staining, 100% set to 1 uM resiquimod, average where assay repeated, Table A1, read-out: hWB CD69 EC50
Description: The induction of Type I interferon (IFN) MX-1 genes and the B-cell activation marker CD69 are downstream events that occur upon activation of the TLR7 pathway. The following is a human whole blood assay that measures their induction in response to a TLR7 agonist.
Heparinized human whole blood was harvested from human subjects and treated with test TLR7 agonist compounds at 1 mM. The blood was diluted with RPMI 1640 media and Echo was used to predot 10 nL per well giving a final concentration of 1 uM (10 nL in 10 uL of blood). After mixing on a shaker for 30 sec, the plates were covered and placed in a 37° C. chamber for o/n=17 hrs. Fixing/lysis buffer was prepared (5×->1× in H2O, warm at 37° C.; Cat #BD 558049) and kept the perm buffer (on ice) for later use.
For surface markers staining (CD69): prepared surface Abs: 0.045 ul hCD14-FITC (ThermoFisher Cat #MHCD1401)+0.6 ul hCD19-ef450 (ThermoFisher Cat #48-0198-42)+1.5 ul hCD69-PE (cat #BD555531)+0.855 ul FACS buffer. Added 3 ul/well, spin1000 rpm for 1 min and mixed on shaker for 30 sec, put on ice for 30 mins. Stop stimulation after 30 minutes with 70 uL of prewarmed 1× fix/lysis buffer and use Feliex mate to resuspend (15 times, change tips for each plate) and incubate at 37C for 10 minutes.
Centrifuge at 2000 rpm for 5 minutes aspirate with HCS plate washer, mix on shaker for 30 sec and then wash with 70 uL in dPBS and pelleted 2×s (2000 rpm for 5 min) and 50 ul wash in FACS buffer pelleted 1×s(2000 rpm for 5 min). Mix on shaker for 30 sec. For Intracellular markers staining (MX-1): Add 50 ul of BD Perm buffer III and mix on shaker for 30 sec. Incubate on ice for 30 minutes (in the dark). Wash with 50 uL of FACS buffer 2× (spin @2300 rpm×5 min after perm) followed by mixing on shaker for 30 sec. Resuspended in 20 ul of FACS buffer containing MX1 antibody ( ) (4812)-Alexa 647: Novus Biologicals #NBP2-43704AF647) 20 ul FACS bf+0.8 ul hlgG+0.04 ul MX-1. Spin 1000 rpm for 1 min, mix on shaker for 30se and the samples were incubated at RT in the dark for 45 minutes followed by washing 2×FACS buffer (spin @2300 rpm×5 min after perm). Resuspend 20 ul (35 uL total per well) of FACS buffer and cover with foil and place in 4° C. to read the following day. Plates were read on iQuePlus. The results were loaded into toolset and IC50 curves are generated in curve master. The y-axis 100% is set to 1 uM of resiquimod.

human TLR7 = target: T1, human TLR7 (Homo sapiens, UniProt Q9NYK1); assay: Human TLR7 agonist activity reporter assay (HEK-Blue TLR7 cells, SEAP reporter); assay type: cell-based; conditions: 18 h treatment, average where assay repeated, Table A1, read-out: hTLR7 Agonism EC50
T1 construct: host or cells: HEK-Blue TLR7 cells (engineered human embryonic kidney cells)
T1 sequence (Q9NYK1 27-1049): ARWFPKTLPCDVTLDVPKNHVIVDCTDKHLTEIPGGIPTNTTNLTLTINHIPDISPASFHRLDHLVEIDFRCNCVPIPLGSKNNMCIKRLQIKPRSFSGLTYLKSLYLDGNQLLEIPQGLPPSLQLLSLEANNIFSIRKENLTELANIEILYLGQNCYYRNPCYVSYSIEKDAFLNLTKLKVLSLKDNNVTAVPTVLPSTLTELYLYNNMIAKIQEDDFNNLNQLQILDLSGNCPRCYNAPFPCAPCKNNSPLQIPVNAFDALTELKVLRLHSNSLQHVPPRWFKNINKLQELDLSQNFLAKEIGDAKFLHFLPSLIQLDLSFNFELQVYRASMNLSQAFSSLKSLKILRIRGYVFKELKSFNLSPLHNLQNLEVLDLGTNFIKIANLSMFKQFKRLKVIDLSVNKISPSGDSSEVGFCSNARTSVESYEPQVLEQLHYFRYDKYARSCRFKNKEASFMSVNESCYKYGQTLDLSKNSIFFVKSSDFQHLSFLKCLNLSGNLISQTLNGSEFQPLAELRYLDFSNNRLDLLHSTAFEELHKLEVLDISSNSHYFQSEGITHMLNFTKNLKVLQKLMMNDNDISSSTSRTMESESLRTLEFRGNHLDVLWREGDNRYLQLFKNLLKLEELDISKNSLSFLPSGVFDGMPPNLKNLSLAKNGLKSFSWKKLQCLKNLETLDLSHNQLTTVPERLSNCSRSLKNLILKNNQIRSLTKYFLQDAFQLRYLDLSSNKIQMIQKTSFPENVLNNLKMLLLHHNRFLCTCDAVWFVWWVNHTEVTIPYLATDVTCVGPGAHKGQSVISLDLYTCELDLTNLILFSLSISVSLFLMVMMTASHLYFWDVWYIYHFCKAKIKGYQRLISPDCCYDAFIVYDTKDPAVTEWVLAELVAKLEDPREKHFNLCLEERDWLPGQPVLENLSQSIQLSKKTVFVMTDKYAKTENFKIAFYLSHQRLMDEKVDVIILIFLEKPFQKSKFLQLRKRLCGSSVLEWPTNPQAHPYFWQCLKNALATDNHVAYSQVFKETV
Description: This procedure describes a method for assaying human TLR7 (hTLR7) agonist activity of the compounds disclosed in this specification.
HEK-Blue™ TLR7 cells were added to each well of a 384-well tissue-culture plate (15,000 cells per well) and incubated 16-18 h at 37° C., 5% CO2. Compounds (100 nl) were dispensed into wells containing the HEK-Blue™ TLR cells and the treated cells were incubated at 37° C., 5% CO2. After 18 h treatment ten microliters of freshly-prepared Quanti-Blue™ reagent (Invivogen) was added to each well, incubated for 30 min (37° C., 5% CO2) and SEAP levels measured using an Envision plate reader (OD=620 nm). The half maximal effective concentration values (EC50; compound concentration which induced a response halfway between the assay baseline and maximum) were calculated.

Row | Compound | EC50 (CD69) [nM] | EC50 (human TLR7) [nM]
1 | 4-[3-({5-amino-7-[({spiro- [2.3]hexan-5-yl}methyl)- amino]-1H-pyrazolo[4,3- d]pyrimidin-1-yl}methyl)-4- methoxybenzoyl]piperazin- 2-one [Compound 153] | 485 | 2250
2 | CCCCNc1nc(N)nc2cnn(Cc3cc(CNC4CCOCC4)ccc3OC)c12 [Compound 101, N7-butyl-1-[(2-methoxy-5-{[(oxan-4-yl)amino]-methyl}phenyl)methyl]-1H-pyrazolo[4,3-d]pyrimidine-5,7-diamine] | – | 352
3 | CCCCNc1nc(N)nc2cnn(Cc3cc(CN4CCC5CCC(C5)C4)ccc3OC)c12 (stereo not drawn) [Compound 102, 1-{[5-({3-azabicyclo-[4.2.1]nonan-3-yl}methyl)-2-methoxyphenyl]methyl}-N7-butyl-1H-pyrazolo[4,3-d]pyrimidine-5,7-diamine] | – | 658
4 | CCCCNc1nc(N)nc2cnn(Cc3cc(CN4CC5CCCC(C5)C4)ccc3OC)c12 [Compound 104, 1-{[5-({3-azabicyclo-[3.3.1]nonan-3-yl}methyl)-2-methoxyphenyl]methyl}-N7-butyl-1H-pyrazolo[4,3-d]pyrimidine-5,7-diamine] | – | 630
5 | CCCCNc1nc(N)nc2cnn(Cc3cc(CN4CC5CCCCCC54)ccc3OC)c12 (stereo not drawn) [Compound 106, 1-{[5-({8-azabicyclo-[5.2.0]nonan-8-yl}methyl)-2-methoxyphenyl]methyl}-N7-butyl-1H-pyrazolo[4,3-d]pyrimidine-5,7-diamine] | – | 502
6 | CCCCNc1nc(N)nc2cnn(Cc3cc(CN4CC5CCCC(C4)C5O)ccc3OC)c12 (stereo not drawn) [Compound 107, 3-[(3-{[5-amino-7-(butyl-amino)-1H-pyrazolo[4,3-d]pyrimidin-1-yl]methyl}-4-methoxyphenyl)methyl]-3-aza bicyclo[3.3.1]nonan-9-ol] | – | 750
7 | CCCCNc1nc(N)nc2cnn(Cc3cc(CNC45CC(C4)C5)ccc3OC)c12 [Compound 110, 1-({5-[({bicyclo[1.1.1]-pentan-1-yl}amino)methyl]-2-methoxyphenyl}-methyl)-N7-butyl-1H-pyrazolo[4,3-d]pyrimidine-5,7-diamine] | – | 447
8 | CCCCNc1nc(N)nc2cnn(Cc3cc(CNC4CC5(CC5)C4)ccc3OC)c12 [Compound 111, N7-butyl-1-({2-methoxy-5-[({spiro[2.3]hexan-5-yl}amino)methyl]phenyl}methyl)-1H-pyrazolo[4,3-d]pyrimidine-5,7-diamine] | – | 358
9 | CCCCNc1nc(N)nc2cnn(Cc3cc(CN4CC5CCS(=O)(=O)C5C4)ccc3OC)c12 (stereo not drawn) [Compound 113, 5-[(3-{[5-amino-7-(butyl-amino)-1H-pyrazolo[4,3-d]pyrimidin-1-yl]methyl}-4-methoxyphenyl)methyl]-hexahydro-2H-1λ6-thieno-[2,3-c]pyrrole-1,1-dione] | – | 493
10 | CCC[C@@H](CCO)Nc1nc(N)nc2cnn(Cc3cc(CN[C@H]4CCOC[C@H]4O)ccc3OC)c12 [Compound 179, (3S,4S)-4-[({3-[(5-amino-7-{[(3S)-1-hydroxyhexan-3-yl]amino}-1H-pyrazolo[4,3-d]pyrimidin-1-yl)methyl]-4-methoxyphenyl}methyl)-amino]oxan-3-ol] | – | 405
11 | CCC[C@@H](CCO)Nc1nc(N)nc2cnn(Cc3cc(CN[C@@H]4COC[C@H]4O)ccc3OC)c12 [Compound 181, (3S,4R)-4-[({3-[(5-amino-7-{[(3S)-1-hydroxyhexan-3-yl]amino}-1H-pyrazolo[4,3-d]pyrimidin-1-yl)methyl]-4-methoxyphenyl}methyl)-amino]oxolan-3-ol] | – | 308
12 | CCC[C@@H](CCO)Nc1nc(N)nc2cnn(Cc3cc(CN[C@@H]4CCOC[C@H]4O)ccc3OC)c12 [Compound 183, (3S,4R)-4-[({3-[(5-amino-7-{[(3S)-1-hydroxyhexan-3-yl]amino}-1H-pyrazolo[4,3-d]pyrimidin-1-yl)methyl]-4-methoxyphenyl}methyl)-amino]oxan-3-ol] | – | 479
13 | CCC[C@@H](CCO)Nc1nc(N)nc2cnn(Cc3cc(CN[C@H]4COC[C@@H]4O)ccc3OC)c12 [Compound 184] | – | 339

The next compounds have a lower EC50 (human TLR7) than those just listed; values first:

Row | EC50 (CD69) [nM] | EC50 (human TLR7) [nM] | Compound
14 | – | 249 | CCCCNc1nc(N)nc2cnn(Cc3cc(CNC(C)(C)C)ccc3OC)c12 [Compound 112]
15 | – | 213 | CCC[C@@H](CCO)Nc1nc(N)nc2cnn(Cc3cc(CN[C@@H]4COCC[C@H]4O)ccc3OC)c12 [Compound 180, (3R,4R)-3-[({3-[(5-amino-7-{[(3S)-1-hydroxyhexan-3-yl]amino}-1H-pyrazolo[4,3-d]pyrimidin-1-yl)methyl]-4-methoxyphenyl}methyl)-amino]oxan-4-ol]
16 | – | 197 | CCC[C@@H](CCO)Nc1nc(N)nc2cnn(Cc3cc(CN[C@H]4COCC[C@@H]4O)ccc3OC)c12 [Compound 182, (3S,4S)-3-[({3-[(5-amino-7-{[(3S)-1-hydroxyhexan-3-yl]amino}-1H-pyrazolo[4,3-d]pyrimidin-1-yl)methyl]-4-methoxyphenyl}methyl)-amino]oxan-4-ol]
17 | – | 193 | CCCCNc1nc(N)nc2cnn(Cc3cc(CN4CCC5CCC(C5)C4)ccc3OC)c12 (stereo not drawn) [Compound 103, 1-{[5-({3-azabicyclo-[4.2.1]nonan-3-yl}methyl)-2-methoxyphenyl]methyl}-N7-butyl-1H-pyrazolo[4,3-d]pyrimidine-5,7-diamine]
18 | – | 172 | CCCCNc1nc(N)nc2cnn(Cc3cc(CN4CCC4)ccc3OC)c12 [Compound 115, 1-({5-[(azetidin-1-yl)methyl]-2-methoxyphenyl}-methyl)-N7-butyl-1H-pyrazolo[4,3-d]pyrimidine-5,7-diamine]
19 | – | 146 | CCCCNc1nc(N)nc2cnn(Cc3cc(CN4CC(O)C4)ccc3OC)c12 [Compound 108, 1-[(3-{[5-amino-7-(butyl-amino)-1H-pyrazolo[4,3-d]pyrimidin-1-yl]methyl}-4-methoxyphenyl)me-thyl]azetidin-3-ol]
20 | – | 51.3 | CCCCNc1nc(N)nc2cnn(Cc3cc(CN4CCN(C)CC4)ccc3OC)c12 [Compound 109, N7-butyl-1-({2-methoxy-5-[(4-methylpiperazin-1-yl)methyl]phenyl}methyl)-1H-pyrazolo[4,3-d] pyrimidine-5,7-diamine]
